Experimental data: patent US20230158152A1, “PROTEOLYSIS REGULATOR AND METHOD FOR USING SAME” (MEDSHINE DISCOVERY INC., priority 2020, published 2023)

Target: T1, Recombinant human-derived ALK (Homo sapiens, UniProt Q9UM73)
T1 construct: BAG10812.1; 1058-1620 (terminal) amino acids; GST (N); made in house
Assay: Inhibitory activity of compounds against ALK kinase (time-resolved fluorescence resonance energy transfer)
Format: biochemical
Conditions: 30 μM ATP, 50 nM ULight-poly GT peptide
Experimental: The inhibitory activity of the compounds on ALK kinase was detected by time-resolved fluorescence resonance energy transfer method, that is, the ratio of fluorescence signals at 665 nm/615 nm was used to represent the activity of the enzyme.
Assay buffer solution: 50 mM 2-[4-(2-hydroxyethyl)-1-piperazinyl]ethanesulfonic acid buffer solution (HEPES) (pH 7.5), 10 mM MgCl2, 1 mM EDTA 0.01%, polyoxyethylene lauryl ether (Brij 35), 2 mM dithiothreitol (DTT).
Enzyme: Recombinant human-derived ALK (gene accession number: BAG10812.1; 1058-1620 (terminal) amino acids) was expressed with a N-terminal GST fusion protein (90 kDa) using a baculovirus expression system.
Enzyme substrate: 50 nM ULight-poly GT polypeptide.
Detection: europium-labeled anti-phosphotyrosine (PT66) antibody.
1. Compounds dissolved in 100% DMSO were added to 384-well plates by acoustic technique; 2. Recombinant human-derived ALK enzyme and enzyme substrate (50 nM ULight-poly GT peptide) or zymolyte (30 μM ATP) were dissolved in freshly prepared assay buffer; 3. The above ALK enzyme and enzyme substrate in the buffer solution were transferred to reaction wells; 4. Then, the zymolyte in the buffer solution was added to the above reaction wells to initiate the reaction; 5. The plate was incubated at room temperature for 1 hour; 6. The detection mixture (PT66 antibody and EDTA) was added to terminate the reaction, and the mixture was incubated at room temperature for 60 minutes; 7. Then, the plate was read using a microplate reader to obtain the ratio of fluorescence signals at 665 nm/615 nm.
Data analysis: Emission ratio (665 nm/615 nm) in the original data was involved in the calculation of the inhibition rate. The concentration and inhibition rate were analyzed using XLfit software 205 mode (4 Parameters Logistic Model) to obtain IC50 value and curve.

T1 sequence (Q9UM73 1058-1620): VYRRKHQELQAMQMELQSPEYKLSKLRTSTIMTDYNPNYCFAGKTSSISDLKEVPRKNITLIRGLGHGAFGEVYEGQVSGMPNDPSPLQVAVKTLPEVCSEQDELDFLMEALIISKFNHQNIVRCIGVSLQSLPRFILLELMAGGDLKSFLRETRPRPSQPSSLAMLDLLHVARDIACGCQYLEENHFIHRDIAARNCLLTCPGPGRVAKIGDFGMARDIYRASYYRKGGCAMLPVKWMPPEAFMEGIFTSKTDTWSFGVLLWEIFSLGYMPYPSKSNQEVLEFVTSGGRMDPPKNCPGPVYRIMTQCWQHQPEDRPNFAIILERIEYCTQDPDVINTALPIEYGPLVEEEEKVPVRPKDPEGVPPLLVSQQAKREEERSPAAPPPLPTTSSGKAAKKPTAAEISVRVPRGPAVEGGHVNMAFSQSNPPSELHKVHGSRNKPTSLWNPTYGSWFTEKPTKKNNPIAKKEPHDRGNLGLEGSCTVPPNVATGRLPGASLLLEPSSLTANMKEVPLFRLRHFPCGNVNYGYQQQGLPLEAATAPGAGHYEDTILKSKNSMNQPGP

`Cc1cc(Nc2ncc(Cl)c(Nc3ccccc3S(=O)(=O)C(C)C)n2)c(OC(C)C)cc1C1CCN(CC(=O)NCCOc2ccc3occ(C4CCC(=O)NC4=O)c3c2)CC1` (stereo not shown) [WX001] gave an IC50 of 21.8 nM.
